Results from article doi:10.1101/2020.10.16.342121v1 (biorxiv, 2020).
pKd: −log10 of the molar value.

What was measured:
[1] = biological target: T1, human serum albumin (HSA) (Homo sapiens, UniProt P02768); test: thermal denaturation followed by intrinsic fluorescence; assay type: binding; conditions: 10 mM PBS pH 7.4, 0.4 μM HSA, 40 μM DHLA, 37-87 °C
[2] = biological target: T1, human serum albumin (HSA); test: intrinsic fluorescence quenching titration; assay type: binding

T1 sequence (P02768 25-609): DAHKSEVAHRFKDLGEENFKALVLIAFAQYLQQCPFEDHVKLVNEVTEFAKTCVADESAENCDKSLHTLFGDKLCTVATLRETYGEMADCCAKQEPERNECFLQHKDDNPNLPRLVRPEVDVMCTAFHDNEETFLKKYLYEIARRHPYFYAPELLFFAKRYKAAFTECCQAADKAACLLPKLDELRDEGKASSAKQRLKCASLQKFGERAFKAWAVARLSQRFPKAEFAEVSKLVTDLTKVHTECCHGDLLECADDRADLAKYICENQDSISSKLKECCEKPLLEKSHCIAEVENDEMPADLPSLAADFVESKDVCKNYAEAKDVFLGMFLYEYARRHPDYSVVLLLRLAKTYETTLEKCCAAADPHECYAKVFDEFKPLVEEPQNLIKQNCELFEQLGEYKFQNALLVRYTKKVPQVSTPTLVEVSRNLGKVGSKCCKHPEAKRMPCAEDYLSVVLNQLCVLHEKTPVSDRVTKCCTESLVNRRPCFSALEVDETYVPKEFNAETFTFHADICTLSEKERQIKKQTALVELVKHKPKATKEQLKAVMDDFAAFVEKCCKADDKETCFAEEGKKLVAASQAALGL

O=C(O)CCCC[C@@H](S)CCS [dihydro-alpha-lipoic acid]
Tm with ligand (HSA alone 68 °C) [1]: 70 °C
pKd [2]: 3.90
